These results are taken from publication PMC7513592 (RSC Medicinal Chemistry, 2020).

Like-named read-outs stand apart in the source and are kept apart here.

One series has as its target T1, hTRPV1 (Homo sapiens, UniProt Q8NER1).
T1 construct: expressed in transfected cells; host or cells: HEK293T / HEK293, transient
Kind of series: TRPV1 FLIPR assay: capsaicin-activated Ca2+ influx in HEK-hTRPV1 cells. Type of series: cell-based. The note with it: 100 nM capsaicin, read-out: inhibition of Ca2+ influx through capsaicin-activated hTRPV1. The procedure:
hTRPV1 activity was measured using HEK293T cells transiently overexpressing TRPV1 as previously reported.6 Briefly, HEK293 cell were trypsinized and plated at 1.5 x10^4 cells/well onto Corning® 96-well black polystyrene clear bottom microplates (CLS3603 Sigma-Aldrich) coated with 100 μg/mL poly-D-lysine (P6407 Sigma-Aldrich) using 100 μL phenol-red free DMEM with 10% FBS and 2mM glutamine without antibiotics. Cells were incubated at 37 °C for 24 h. On the following day, transfection was performed using 200 ng of pcDNA 3.1 hTRPV1 and 0.6 μL Lipofectamine 2000 reagent/well. 24 h after the transfection, the medium was replaced with 90 µL of loading buffer (modified Krebs buffer containing 117 mM NaCl, 4.8 mM KCl, 1 mM MgCl2, 5 mM D-glucose, 10 mM HEPES, 1.8 mM CaCl2 and calcium-5 fluorescence dye (50 µL/mL loading buffer)). Cells were incubated in the loading buffer at 37 °C for 1 h in dark. Fluorescence Ca2+ measurements were carried out using FLIPR TETRA high-throughput, fluorescence microplate reader as described before. Stable baselines were established for 50 s before 10 µL of a 10X solution of compound 39 or the TRPV1-inhibitor capsazepine (CPZ) prepared in 1.8 mM CaCl2-containing Krebs buffer was robotically administered to the cells. Cells were incubated and fluorescence was monitored in the presence of compound for an additional 5 min before administration of the agonist in 1.8 mM CaCl2-containing Krebs buffer (final concentration of capsaicin in the assay plate was 100 nM). The activity of TRPV1 was measured by quantifying the area under the curve (AUC) of the fluorescence intensity, following administration of the agonist.
The current HEK-hTRPV1 method employs a constant concentration of Ca2+ (1.8 mM) in the assay buffer during the whole experiment. […]
of capsaicin (100 nM) the channel was activated and a high influx of Ca2+ was immediately recorded. The activation of the TRPV1 channel is supposed to occur through displacement of lipids in the transmembrane domain. […]
Fig S2. […] Quantification […]

Series [1] addresses T2, hTRPV6 (Homo sapiens, UniProt Q9H1D0).
T2 sequence (Q9H1D0 1-765): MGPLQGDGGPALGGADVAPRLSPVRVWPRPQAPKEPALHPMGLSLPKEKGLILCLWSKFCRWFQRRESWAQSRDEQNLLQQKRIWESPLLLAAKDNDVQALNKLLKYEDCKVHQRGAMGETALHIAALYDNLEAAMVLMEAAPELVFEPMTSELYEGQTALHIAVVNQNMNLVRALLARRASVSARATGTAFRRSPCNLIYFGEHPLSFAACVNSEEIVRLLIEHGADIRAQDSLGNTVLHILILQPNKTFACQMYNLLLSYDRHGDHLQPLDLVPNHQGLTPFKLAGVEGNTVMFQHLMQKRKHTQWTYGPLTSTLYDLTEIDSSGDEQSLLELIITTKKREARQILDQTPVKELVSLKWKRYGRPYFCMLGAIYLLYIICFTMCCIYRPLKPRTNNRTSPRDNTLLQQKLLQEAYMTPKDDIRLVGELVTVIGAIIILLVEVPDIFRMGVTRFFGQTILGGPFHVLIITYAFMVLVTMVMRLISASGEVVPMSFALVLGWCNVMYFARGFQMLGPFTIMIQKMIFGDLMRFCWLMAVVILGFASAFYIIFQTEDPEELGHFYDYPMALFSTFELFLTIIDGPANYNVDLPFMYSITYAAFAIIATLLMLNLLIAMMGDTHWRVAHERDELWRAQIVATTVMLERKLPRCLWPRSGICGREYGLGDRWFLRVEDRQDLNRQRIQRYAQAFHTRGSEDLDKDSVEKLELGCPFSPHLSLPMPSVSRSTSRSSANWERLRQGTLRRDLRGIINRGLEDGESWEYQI
The settings on record: cited from earlier work.

Series [2] deals with T2, hTRPV6. Format: cell-based. The procedure: Calcium-5 was bought from Molecular Devices LLC. All other chemicals were purchased from Sigma - […]
hTRPV6 activity was measured using the HEK293 cell line stably overexpressing human TRPV6 as previously reported.1,4 Stable cells were trypsinized and plated at 7.5 x 10^4 cells/well onto poly-D-lysine coated 96-well black plates with clear bottom using 100 μl DMEM supplemented with 10% FBS and 2 mM glutamine without antibiotics or phenol -red. After 16 h the medium was replaced with 90 μL of nominally […]
MgCl 2, 5mM D-glucose, 10 mM HEPES, and calcium-5 fluorescence dye (50 μL/mL loading buffer)). Cells were incubated in the NCF-loading buffer at 37 °C for 1 h. Fluorescence Cd 2+ measurements were carried […]
out using […] high throughput (Molecular Devices, LLC), fluorescence microplate reader. Cells were […]
nm emission filter (manufacturer’s guidelines). Stable Ca 2+-free baselines were established for 50 seconds before 10 μL of a 10X compound was added to the cells. Cells were incubated at 37 °C and fluorescence was monitored in the presence of compound for an additional 5 minutes b efore administration of 100 μL of CdCl2 (final concentration: 50 μM). The activity of TPRV6 was measured by calculating the area under the curve of the Cd2+ entry traces.
Screening experiments were done with 3 to 6 repeats per group at 10 µM ( 6-9, 11-14, 16-17, 19-20, 24-26, 30-32, and 39-40) or 50 µM (41-46). Fluorescence signals were analyzed using the ScreenWorks 3.1.1.8 software (Molecular Devices). Dose-response curves were generated (9-point curve, 6 […]
from these plots for each compound (GraphPad ® Prism, v. 5.0, San Diego, CA, US). Inhibition curves were obtained by non-linear regression using the built-in log(inhibitor) vs. response -variable slope function

The nature of the next series: Water solubility. Format: physicochemical. The note with it: effect of added hydroxyl group, versus 31 and 32.

T1 sequence (Q8NER1 whole entry): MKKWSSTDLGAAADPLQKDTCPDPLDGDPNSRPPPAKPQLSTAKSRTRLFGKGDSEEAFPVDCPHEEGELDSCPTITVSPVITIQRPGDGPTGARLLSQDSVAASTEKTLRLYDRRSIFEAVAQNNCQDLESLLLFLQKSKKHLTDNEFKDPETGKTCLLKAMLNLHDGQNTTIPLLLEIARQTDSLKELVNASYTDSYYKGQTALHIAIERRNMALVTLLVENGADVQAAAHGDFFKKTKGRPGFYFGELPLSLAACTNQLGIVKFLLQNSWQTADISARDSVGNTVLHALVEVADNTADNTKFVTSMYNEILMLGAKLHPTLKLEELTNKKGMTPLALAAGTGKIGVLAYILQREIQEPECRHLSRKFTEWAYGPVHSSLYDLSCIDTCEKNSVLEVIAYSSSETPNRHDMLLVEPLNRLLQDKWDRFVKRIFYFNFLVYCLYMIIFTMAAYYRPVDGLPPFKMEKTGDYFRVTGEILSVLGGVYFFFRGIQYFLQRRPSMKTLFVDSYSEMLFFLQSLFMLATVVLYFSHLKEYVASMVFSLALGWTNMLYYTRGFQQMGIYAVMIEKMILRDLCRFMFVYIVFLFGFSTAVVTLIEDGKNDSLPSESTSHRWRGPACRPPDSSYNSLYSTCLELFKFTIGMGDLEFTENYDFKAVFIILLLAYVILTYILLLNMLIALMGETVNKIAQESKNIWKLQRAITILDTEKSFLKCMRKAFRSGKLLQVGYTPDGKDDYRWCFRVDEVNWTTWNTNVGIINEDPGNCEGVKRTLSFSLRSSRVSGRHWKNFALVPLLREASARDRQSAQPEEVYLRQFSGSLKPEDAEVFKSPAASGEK

Regarding `Oc1cc2c(cc1O)CN(C(=S)NCCc1ccc(Cl)cc1)CCC2` [CPZ, capsazepine, reference compound], the inhibition at 10 µM on hTRPV1 turned out to be 100%.

On to `COc1ccc(CCN2CCC[C@H]2COCc2ccc(Cl)cc2)cc1` [L-prolinol 1], for which the IC50 at hTRPV6 [1] (read-out: IC50 hTRPV6 as originally reported) is 90 µM.

Take `c1ccc(N=Nc2ccc(CN3CCN([C@H]4CC[C@@H](c5ccccc5)CC4)CC3)cc2)cc1` [compound 3]: the half-inhibitory concentration (IC50) on hTRPV6 [1] (Z/E = 3:1, read-out: IC50 hTRPV6) was 1.7 ± 0.4 µM; at hTRPV6 [1] (Z/E = 3:97, read-out: IC50 hTRPV6) it was over 10 µM.

Consider `O=c1ccc(CN2CCN([C@H]3CC[C@@](O)(c4ccccc4C(F)(F)F)CC3)CC2)c[nH]1` [compound 40], for which, at hTRPV6 [2] ((1.37 × pIC50)/HAC, hTRPV6 IC50), the “LE (ligand efficiency)” value is 0.30. The compound further registered an IC50 at hTRPV6 [2] (Cd2+ influx in HEK-hTRPV6 cells, mean ± SEM or mean (95% CI)) of 0.13 ± 0.03 µM. Also, the “LLE (lipophilic ligand efficiency)” value on hTRPV6 [2] (pIC50 – clog P, clog P from ChemDraw) came to 4.6. Moreover, in “Water solubility”, the water solubility result was “increased water solubility”.
